Like-named read-outs stand apart in the source and are kept apart here.
Legend:
MtbIMPDH = MtbIMPDH (Mycobacterium tuberculosis, UniProt P9WKI7); assay: MtbIMPDH inhibition; type: biochemical
CpIMPDH [1] = molecular target: T1, CpIMPDH (Cryptosporidium parvum, UniProt Q8T6T2); assay: biochemical; type: biochemical; details: for CpIMPDH inhibition, result in words: relative to parent anilide
T1 sequence (Q8T6T2 1-400): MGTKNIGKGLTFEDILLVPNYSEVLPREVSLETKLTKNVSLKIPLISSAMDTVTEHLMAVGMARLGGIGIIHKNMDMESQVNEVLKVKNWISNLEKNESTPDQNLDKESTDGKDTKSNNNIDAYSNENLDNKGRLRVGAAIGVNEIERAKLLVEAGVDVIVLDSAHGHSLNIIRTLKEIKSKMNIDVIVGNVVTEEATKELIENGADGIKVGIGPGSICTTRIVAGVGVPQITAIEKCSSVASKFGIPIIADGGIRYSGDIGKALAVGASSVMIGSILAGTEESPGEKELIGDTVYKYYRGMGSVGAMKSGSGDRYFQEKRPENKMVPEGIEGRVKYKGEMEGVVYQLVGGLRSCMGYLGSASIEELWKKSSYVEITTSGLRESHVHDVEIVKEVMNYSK

HsIMPDH2 = HsIMPDH2 (Homo sapiens, UniProt P12268); assay: HsIMPDH2 enzyme inhibition; type: biochemical
HsIMPDH1 = details: read-out: HsIMPDH1 Ki; cited from earlier work
CpIMPDH [2] = molecular target: T1, CpIMPDH; details: read-out: CpIMPDH Ki; cited from earlier work
[3] = ratio of Ki,app of the two enantiomers

MtbIMPDH, sequence (P9WKI7 whole entry, looked up): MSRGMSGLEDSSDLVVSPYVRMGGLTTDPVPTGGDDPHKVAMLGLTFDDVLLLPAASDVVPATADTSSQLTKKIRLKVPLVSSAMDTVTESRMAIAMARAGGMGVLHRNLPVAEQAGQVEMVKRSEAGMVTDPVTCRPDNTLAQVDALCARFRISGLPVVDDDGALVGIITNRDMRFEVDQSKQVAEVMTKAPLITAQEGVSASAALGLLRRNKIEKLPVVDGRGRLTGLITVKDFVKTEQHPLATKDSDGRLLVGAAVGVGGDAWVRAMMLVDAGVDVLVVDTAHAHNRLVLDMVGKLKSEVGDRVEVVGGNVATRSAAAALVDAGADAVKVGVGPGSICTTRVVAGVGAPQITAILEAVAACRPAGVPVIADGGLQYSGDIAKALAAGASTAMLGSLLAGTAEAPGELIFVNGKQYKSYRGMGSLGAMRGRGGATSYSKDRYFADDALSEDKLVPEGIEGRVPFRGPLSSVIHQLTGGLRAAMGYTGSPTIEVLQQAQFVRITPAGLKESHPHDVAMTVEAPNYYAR

Row | SMILES | Ki (CpIMPDH [1]) [nM] | Ki (HsIMPDH2) [nM] | also measured
1 | COc1c(C)c2c(c(O)c1C/C=C(\C)CCC(=O)Nc1ccc(Cl)c(C(F)(F)F)c1)C(=O)OC2 [Compound 10] | – | – | Ki (MtbIMPDH): 60 nM
2 | COc1c(C)c2c(c(O)c1C/C=C(\C)CCC(=O)Nc1cccc(Cl)c1Cl)C(=O)OC2 [Compound 11] | – | – | CpIMPDH inhibition, result in words (CpIMPDH [1]): loss of CpIMPDH inhibitory activity
3 | COc1c(C)c2c(c(O)c1C/C=C(\C)CCC(=O)Nc1ccc(F)cc1)C(=O)OC2 [Compound 13] | 180 | – | –
4 | COc1c(C)c2c(c(O)c1C/C=C(\C)CCC(=O)Nc1ccc(C(F)(F)F)cc1)C(=O)OC2 [Compound 14] | 151 | – | –
5 | COc1c(C)c2c(c(O)c1C/C=C(\C)CCC(=O)N(C)c1ccc(Cl)cc1)C(=O)OC2 [Compound 16] | – | – | CpIMPDH inhibition, result in words (CpIMPDH [1]): loss of activity
6 | COc1c(C)c2c(c(O)c1C[C@H]1C[C@]1(C)CCC(=O)Nc1ccc(Cl)c(C(F)(F)F)c1)C(=O)OC2 [Compound 31a] | 570 | 1400 | –
7 | COc1c(C)c2c(c(O)c1C[C@@H]1C[C@@]1(C)CCC(=O)Nc1ccc(Cl)c(C(F)(F)F)c1)C(=O)OC2 [Compound 31b] | 66 | 460 | eudysmic ratio of 31b and 31a for CpIMPDH inhibition (CpIMPDH [1]; [3]): 8.6; eudysmic ratio of 31b and 31a for HsIMPDH inhibition (HsIMPDH2; [3]): 3.1
8 | COc1c(C)c2c(c(O)c1CCOCC(=O)Nc1ccc(Cl)cc1)C(=O)OC2 [Compound 38] | 405 | 870 | –
9 | COc1c(C)c2c(c(O)c1C/C=C/C(=O)Nc1ccc(Cl)cc1)C(=O)OC2 [Compound 42a] | 480 | 550 | –
10 | COc1c(C)c2c(c(O)c1CCCC(=O)Nc1ccc(Cl)cc1)C(=O)OC2 [Compound 42b] | 450 | 290 | –
11 | COc1c(C)c2c(c(O)c1CC(=O)Nc1ccc(Cl)cc1)C(=O)OC2 [Compound 44] | 2800 | 800 | –
12 | COc1c(C)c2c(c(O)c1C/C=C(\C)CCC(=O)O)C(=O)OC2 [MPA, Mycophenolic acid] | – | – | Ki (HsIMPDH1): 33 nM; Ki (CpIMPDH [2]): 9300 nM

— paper PMC9511823 (Bioorganic & medicinal chemistry letters, 2020)
